In patent publication US12428380B2 (PSYLO PTY LTD, priority 2023, dated 2025):

What was measured:
Type in all cases: cell-based
5-HT2B = molecular target: T1, 5-HT2B (Homo sapiens, UniProt P41595); assay: Activation in a similar Ca2+ flux assay at a single concentration, 5-HT2B; conditions: head prints 10 µM
T1 construct: host or cells: CHO-K1
Description: Activity at 5-HT2A, 5-HT2B and 5-HT2C receptors was determined using a FLIPR Ca2+ flux assay at WuXi AppTec Co. Ltd. (Hong Kong) Discovery Biology Unit according to their standard protocols. Briefly, stably transfected cells expressing the receptor of interest (HEK293 for 5-HT2A and 5-HT2C; CHO-K1 for 5-HT2B) were grown and plated in a 384 well plate and incubated at 37° C. and 5% CO2 overnight. A 250 mM stock solution of probenecid in FLIPR calcium assay buffer (10 mL) was freshly prepared and combined with a fluorescent dye (Fluo-4 Direct) to give a final assay concentration of 2.5 mM. Reference compounds were 4-fold serially diluted and the screening compounds were 3-fold serially diluted in 100% DMSO for 10 points using Agilent Bravo, and 750 nL was added to a 384 well compound plate using Echo along with 30 μL assay buffer. The fluorescent dye was then added to the assay plate along with assay buffer to a final volume of 40 μL. The cell plate was incubated for 50 min at 37° C. and 5% CO2 and placed into the FLIPR Tetra along with the compound plate. 10 μL of references and compounds were then transferred from the compound plate into the cell plate and the fluorescent signal was read.
Activation data are provided in a similar assay tested at a single 10 μM concentration.

5-HT2A = molecular target: T2, 5-HT2A (Homo sapiens, UniProt P28223); assay: FLIPR Ca2+ flux functional assay, 5-HT2A (HEK293); conditions: HEK293 cells expressing 5-HT2A; for Emax: HEK293, agonist activity; for EC50: agonist activity
T2 construct: host or cells: HEK293
T2 sequence (P28223 whole entry): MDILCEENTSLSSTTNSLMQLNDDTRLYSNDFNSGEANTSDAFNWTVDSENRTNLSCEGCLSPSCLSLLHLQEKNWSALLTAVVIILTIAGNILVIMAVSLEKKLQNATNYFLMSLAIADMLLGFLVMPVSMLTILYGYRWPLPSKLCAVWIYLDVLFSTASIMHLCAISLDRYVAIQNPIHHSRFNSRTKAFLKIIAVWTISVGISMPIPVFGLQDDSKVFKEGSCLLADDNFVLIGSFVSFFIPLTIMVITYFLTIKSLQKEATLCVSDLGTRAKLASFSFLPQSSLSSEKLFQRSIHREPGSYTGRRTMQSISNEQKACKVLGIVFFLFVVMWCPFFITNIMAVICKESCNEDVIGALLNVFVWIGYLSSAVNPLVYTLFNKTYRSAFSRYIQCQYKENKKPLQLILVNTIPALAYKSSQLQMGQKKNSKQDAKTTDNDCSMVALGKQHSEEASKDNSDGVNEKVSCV

5-HT2C = molecular target: T3, 5-HT2C (Homo sapiens, UniProt P28335); assay: FLIPR Ca2+ flux functional assay, 5-HT2C (HEK293); conditions: HEK293 cells expressing 5-HT2C; for Emax: HEK293, agonist activity; for EC50: agonist activity
T3 construct: host or cells: HEK293
T3 sequence (P28335 33-458): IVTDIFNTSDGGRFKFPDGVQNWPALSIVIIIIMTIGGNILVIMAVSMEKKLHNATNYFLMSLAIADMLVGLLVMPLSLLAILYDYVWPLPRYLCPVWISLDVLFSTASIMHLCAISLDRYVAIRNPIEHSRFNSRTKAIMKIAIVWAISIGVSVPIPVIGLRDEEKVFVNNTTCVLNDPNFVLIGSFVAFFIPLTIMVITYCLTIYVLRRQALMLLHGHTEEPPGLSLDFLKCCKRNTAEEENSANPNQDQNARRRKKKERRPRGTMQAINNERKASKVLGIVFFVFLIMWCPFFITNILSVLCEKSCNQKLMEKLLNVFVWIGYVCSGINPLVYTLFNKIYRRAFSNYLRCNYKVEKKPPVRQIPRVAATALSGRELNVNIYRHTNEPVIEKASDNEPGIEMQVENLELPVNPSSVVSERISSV

T1 sequence (P41595 whole entry, species assumed): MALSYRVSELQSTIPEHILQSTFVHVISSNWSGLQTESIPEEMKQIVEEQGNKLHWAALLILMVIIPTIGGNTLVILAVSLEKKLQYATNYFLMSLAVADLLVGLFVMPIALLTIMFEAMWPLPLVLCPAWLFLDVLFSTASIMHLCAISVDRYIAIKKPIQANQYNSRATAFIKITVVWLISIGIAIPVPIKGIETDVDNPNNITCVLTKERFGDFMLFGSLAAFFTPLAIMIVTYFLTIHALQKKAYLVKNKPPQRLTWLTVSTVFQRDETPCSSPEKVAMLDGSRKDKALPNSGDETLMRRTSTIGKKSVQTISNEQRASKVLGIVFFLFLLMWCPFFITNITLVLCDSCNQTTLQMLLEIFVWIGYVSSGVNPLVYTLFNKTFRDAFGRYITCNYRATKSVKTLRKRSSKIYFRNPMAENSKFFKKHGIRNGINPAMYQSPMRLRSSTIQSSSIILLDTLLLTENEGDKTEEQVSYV

For `COc1c(F)ccc2[nH]nc(CCN(C)C)c12` [Example A1, 2-(5-fluoro-4-methoxy-1H-indazol-3-yl)-N,N-dimethylethan-1-amine], the “5-HT2B % Activation @ 10 µM” value (5-HT2B) was 21%, the Emax (5-HT2A) was 82% and the EC50 (5-HT2A) was 28.3 nM. It also gave an Emax (5-HT2C) of 84% and an EC50 (5-HT2C) of 8.21 nM.

`CCN(C)CCc1n[nH]c2ccc(F)c(OC)c12` [Example A2, N-ethyl-2-(5-fluoro-4-methoxy-1H-indazol-3-yl)-N-methylethan-1-amine] was tested, and the “5-HT2B % Activation @ 10 µM” value (5-HT2B) was 57%, the Emax (5-HT2A) was 87% and the EC50 (5-HT2A) was 31.5 nM. It also gave an Emax (5-HT2C) of 86% and an EC50 (5-HT2C) of 15.5 nM.

In the case of `COc1c(F)ccc2[nH]nc(CCN(C)C(C)C)c12` [Example A3, N-(2-(5-fluoro-4-methoxy-1H-indazol-3-yl)ethyl)-N-methylpropan-2-amine], the “5-HT2B % Activation @ 10 µM” value (5-HT2B) is reported as 17%, the Emax (5-HT2A) is reported as 76% and the EC50 (5-HT2A) is reported as 96.5 nM. It also gave an Emax (5-HT2C) of 80% and an EC50 (5-HT2C) of 170 nM.

`COc1c(F)ccc2[nH]nc(CCN(C)C3CC3)c12` [Example A4, N-(2-(5-fluoro-4-methoxy-1H-indazol-3-yl)ethyl)-N-methylcyclopropanamine] was tested, and the “5-HT2B % Activation @ 10 µM” value (5-HT2B) was 2%, the Emax (5-HT2A) was 67% and the EC50 (5-HT2A) was 62.7 nM. The Emax (5-HT2C) was 91% and the EC50 (5-HT2C) was 17.1 nM.

`CCN(C)CCc1n[nH]c2cc(F)c(OC)cc12` [Example A6, N-ethyl-2-(6-fluoro-5-methoxy-1H-indazol-3-yl)-N-methylethan-1-amine] was tested, and the “5-HT2B % Activation @ 10 µM” value (5-HT2B) was 40%, the Emax (5-HT2A) was 86% and the EC50 (5-HT2A) was 110 nM. The Emax (5-HT2C) was 101% and the EC50 (5-HT2C) was 786 nM.

In the case of `COc1cc2c(CCN(C)C(C)C)n[nH]c2cc1F` [Example A7, N-(2-(6-fluoro-5-methoxy-1H-indazol-3-yl)ethyl)-N-methylpropan-2-amine], the “5-HT2B % Activation @ 10 µM” value (5-HT2B) is reported as 7%, the Emax (5-HT2A) is reported as 63% and the EC50 (5-HT2A) is reported as 318 nM. The Emax (5-HT2C) was 67% and the EC50 (5-HT2C) was 4180 nM.

`COc1cc2c(CCN(C)C3CC3)n[nH]c2cc1F` [Example A8, N-(2-(6-fluoro-5-methoxy-1H-indazol-3-yl)ethyl)-N-methylcyclopropanamine] was tested, and the “5-HT2B % Activation @ 10 µM” value (5-HT2B) was 6%, the Emax (5-HT2A) was 71% and the EC50 (5-HT2A) was 208 nM. For the same compound, the Emax (5-HT2C) was 102% and the EC50 (5-HT2C) was 507 nM.

`COc1cc(F)cc2[nH]nc(CCN3CCC3)c12` [Example A41, 3-(2-(azetidin-1-yl)ethyl)-6-fluoro-4-methoxy-1H-indazole] showed an Emax (5-HT2A) of 78%, an EC50 (5-HT2A) of 1080 nM and an Emax (5-HT2C) of 65%. For the same compound, the EC50 (5-HT2C) was 1420 nM.

In the case of `COc1cc(F)cc2[nH]nc(CCN3CCCC3)c12` [Example A42, 6-fluoro-4-methoxy-3-(2-(pyrrolidin-1-yl)ethyl)-1H-indazole], the Emax (5-HT2A) is reported as 81%, the EC50 (5-HT2A) is reported as 697 nM and the Emax (5-HT2C) is reported as 89%. It also gave an EC50 (5-HT2C) of 944 nM.

For `COc1ccc(F)c2[nH]nc(CCN3CCCC3)c12` [Example A48, 7-fluoro-4-methoxy-3-(2-(pyrrolidin-1-yl)ethyl)-1H-indazole], the Emax (5-HT2A) was 70%, the EC50 (5-HT2A) was 533 nM and the Emax (5-HT2C) was 67%. For the same compound, the EC50 (5-HT2C) was 556 nM.

`COc1cc(F)c2[nH]nc(CCN3CCCC3)c2c1` [Example A54, 7-fluoro-5-methoxy-3-(2-(pyrrolidin-1-yl)ethyl)-1H-indazole] was tested, and the Emax (5-HT2A) was 75%, the EC50 (5-HT2A) was 1380 nM and the Emax (5-HT2C) was 38%. For the same compound, the EC50 (5-HT2C) was 3260 nM.

`COc1cc2c(CCN3CC4CC4C3)n[nH]c2cc1F` (stereo not shown) [Example A61, 3-(2-(3-azabicyclo[3.1.0]hexan-3-yl)ethyl)-6-fluoro-5-methoxy-1H-indazole] was tested, and the Emax (5-HT2A) was 67%, the EC50 (5-HT2A) was 1580 nM and the Emax (5-HT2C) was 21%. The EC50 (5-HT2C) was > 10000 nM.

For `Fc1ccc2[nH]nc(CCN3CCC3)c2c1F` [Example A72, 3-(2-(azetidin-1-yl)ethyl)-4,5-difluoro-1H-indazole], the Emax (5-HT2A) was 78%, the EC50 (5-HT2A) was 1350 nM and the Emax (5-HT2C) was 37%. It also gave an EC50 (5-HT2C) of 973 nM.

`COc1cc2c(CCN3CCC4CC43)nn(C)c2cc1F` (stereo not shown) [Example A75, 3-(2-(2-azabicyclo[3.1.0]hexan-2-yl)ethyl)-6-fluoro-5-methoxy-1-methyl-1H-indazole] was tested, and the Emax (5-HT2A) was 77% and the EC50 (5-HT2A) was 63.4 nM.
